Source: patent US20040019095A1, “N, N'-dimethylated N-confused porphyrins” (priority 2002, published 2004)

Assay: Singlet oxygen test with DPBF (decay of DPBF absorption at 418 nm on irradiation)
Assay type: physicochemical
Settings: solution of DPBF and porphyrin salt irradiated with halogen lamp, filter ~700 nm; b88: four 20 seconds intervals
Source text: Alternatively, the ability to generate singlet oxygen may be tested as follows. DPBF (1,3-diphenylisobenzofuran)^8 is used to determine the ability of N,N′-dimethylated N-confused porphyrin salts to generate singlet oxygen. DPBF reacts quickly with singlet oxygen and its absorption decay around 418 nm can be easily monitored. […] A solution containing DPBF and N,N′-dimethylated N-confused porphyrin salts (e.g. compound 9 in FIG. 3) was irradiated with a halogen lamp using a filter (˜700 nm), and monitored by UV-vis spectroscopy at 418 nm.
Pyrrole (Acros) was distilled from CaH2 before use. The silica gel was 230-400 mesh Silicycle). Activity III basic alumina was obtained by adding 6% water to activity I Brockman basic alumina, 60-325 mesh (Fisher). All other materials and solvents were used as received. The NMR spectra were recorded on a Bruker WH-400 or a Bruker AV-400 in the solvents indicated and were referenced to residual solvent peaks. Elemental analyses were performed on a Carlo Erba Elemental Analyzer1108. The UV-vis spectra were measured on a Cary 50. Mass spectra were determined on a KRATOS Concept IIHQ hybrid mass spectrometer. Irradiations were carried with a 250 W Osram HLX 64655 […] in an Oriel lamp housing (model 66184). The light output passed through a glass filter: P70-700-S-Corion. […]

N,N′-Dimethylated 2-aza-5,10,15,20-tetra(p-tolyl)-21-carba-porphyrin.HI [compound 9]
decay of UV-vis signal at 418 nm (singlet oxygen generation): Substantial decay
